Data from patent publication US20180371384A1, “METHOD FOR PRODUCING ROOTING-SUPPRESSED MALT” (SUNTORY HOLDINGS LIMITED, priority 2015, published 2018).

Key:
[1] = system: β-amylase; assay: Measurement of β-amylase level in malts; design: species or system barley
Description: One gram of […] previously cryo-milled with ShakeMaster manufactured by Medical Bio Science is suspended in 2 mL of a buffer suitable for the measurement of activities of various enzymes, extraction is carried out for 60 minutes in iced water, and the extracts are then subjected to ultracentrifugation treatment (1,000 g×20 minutes), to provide the supernatant as an enzyme solution. Enzyme extracts from […] to Betamyl (p-nitrophenyl maltotriose; […]

[2] = system: endoprotease; assay: Measurement of endoprotease level in malts; design: species or system barley
Description: One gram of […] previously cryo-milled with ShakeMaster manufactured by Medical Bio Science is suspended in 2 mL of a buffer suitable for the measurement of activities of various enzymes, extraction is carried out for 60 minutes in iced water, and the extracts are then subjected to ultracentrifugation treatment (1,000 g×20 minutes), to provide the supernatant as an enzyme solution. Azo-stained casein is used as a substrate, enzyme extracts from […] thereto, and the mixture is reacted at 40° C. for 30 minutes. The reaction is stopped with a TCA solution, the solution is allowed to stand for 5 minutes, the mixture is then subjected to centrifugation to precipitate an undegraded substrate, and the supernatant is subjected to colorimetry at 366 mn (n=5). Here, an enzyme activity is defined such that an enzyme concentration of an enzyme liquid which is added to an enzyme reaction liquid to increase the absorbance by 1.0 is 1 U/mL. […] A pH of the solution is then adjusted to 8.5 with a diluted sulfuric acid, and a volume is tilled up to 100 mL.

[3] = system: barley (Sukai Golden); assay: Amount of rooting, yield and length of acrospires (Test Example 3); type: in vivo; conditions: for Amount of Rooting Based on 100 g of Barley: germination 5 days at 20° C.
Excerpt: Here, the rooting amount used herein means total weight of a root thrusting out of the surface of each grain in malts which are malted from 100 g of raw material barley.
Crops of Sukai Golden harvested in the year 2013 (99% of germination ratio) were used as domestic (Japan) two-row malting barley cultivar. and steeping conditions were the same as those in Test Example 1. A standard in which steeping of barley was earned out in pure water (pH 7.0) was defined as “normal steeping bailey (Comparative Example 2),” and a standard in which steeping of barley was earned out in an aqueous solution having a pH listed in Table 3 with phosphoric acid was defined as “acidic steeping barley (Example 2),” and three batches of malts each of which was obtained by going through the steps of steeping, germination and kilning were prepared. For each of batches of the normal malts and the acidic steeping barley obtained, the weight of rooting was obtained, and an average length of acrospires and an yield were obtained in the same manner as Test Example 1 to calculate an average thereof. In addition, each of the contents of an acrid component and β-glucan was measured as follows, and the contents of enzymes were measured in the same manner as Test Example 2. […] In addition, the germination was carried out for 5 days while keeping a temperature at 20° C. In addition, an yield was calculated as X/100 (%) from X g of a weight of roots-removed malts obtained from 100 g of barley.

[4] = system: acrid component (hordatine glycoside); assay: Measurement of acrid components in malts (LCMS); design: species or system barley
Excerpt: In addition, the content of the acrid component in the acidic steeping malts obtained is, for example, lowered in a case of a pH of from 1.8 to 2.0 of the acidic steeping water, and the content is preferably 90% by weight or less, more preferably 80% by weight or less, even more preferably 75% by weight or less, even more preferably 70% by weight or less, even more preferably 60% by weight or less, and even more preferably 55% by weight or less, when defining the content of the acrid component in normal malts as 100% by weight. Here, the acrid component as used herein refers to a hordatine glycoside, and the content can be measured in accordance with a method set forth in the following Examples.
The amount 5.0 g of malts which are previously cryo-milled with ShakeMaster manufactured by Medical Bio Science are suspended in 40 mL of hot water at 65° C., and extraction is carried out at 65° C. for 1 hour. Thereafter, the extracts are subjected to centrifugation at 5,000 rpm for 20 minutes, and 10 mL of the supernatant is applied to PLS-2 solid phase column of GL Science (activated with methanol or the like), the column is washed with water, and thereafter fractions eluted with 20% ethanol are collected. The eluents are concentrated with SpeedVac, a concentrate is then freeze-dried, the freeze-dried product is dissolved in water, and the solution is subjected to LCMS under the following conditions, to obtain area of peak thereof.
Apparatus; LCMS-2020 manufactured by Shimadzu Corporation
Column: Polar column (Develosil-C30-UG-5. φ2×150 mm)
Mobile phase: Gradient of water containing 0.1% formic acid/acetocetonitrile[sic] • 0 to 62.5 minutes (2→10% acetonitrile) • 62.5 to 72.5 minutes (10% acetonitrile)
Column temperature: 40° C.

[5] = system: α-amylase; assay: Measurement of α-amylase level in malts; design: species or system barley
Description: One gram of malts which are previously cryo-milled with ShakeMaster manufactured by Medical Bio Science is suspended in 2 mL of a buffer suitable for the measurement of activities of various enzymes, extraction is carried out for 60 minutes in iced water, and the extracts are then subjected to ultracentrifugation treatment (1,000 g×20 minutes), to provide the supernatant as an enzyme solution.
A crop a amylase kit from BIOCON is used. A blocked p-nitrophenyl maltoheptaoside (BPNPG7) is used as a substrate, enzyme extracts from malts are added thereto, and the mixture is reacted at 40° C. for 20 minutes. The reaction is stopped with Trizma base, and p-nitrophenyl maltosaccharide produced is degraded with glucoamylase, α-glucosidase. P-nitrophenol produced is subjected to phenolate color development, and the absorbance is measured at 410 nm (n=5).

Compound: O=P(O)(O)O [Phosphoric Acid, phosphoric acid]
- β-Amylase (Based on Normal Steeping Barley, %) ([1]; Initial pH 1.5, 223 mM): 187%
- β-Amylase (Based on Normal Steeping Barley, %) ([1]; Initial pH 1.6, 176 mM): 128%
- β-Amylase (Based on Normal Steeping Barley, %) ([1]; Initial pH 1.8, 82 mM): 557%
- β-Amylase (Based on Normal Steeping Barley, %) ([1]; Initial pH 2.0, 29 mM): 400%
- β-Amylase (Based on Normal Steeping Barley, %) ([1]; Initial pH 2.2, 18 mM): 370%
- β-Amylase (Based on Normal Steeping Barley, %) ([1]; Initial pH 2.4, 7 mM): 221%
- Endoprotease (Based on Normal Steeping Barley, %) ([2]; Initial pH 1.5, 223 mM): 16%
- Endoprotease (Based on Normal Steeping Barley, %) ([2]; Initial pH 1.6, 176 mM): 20%
- Endoprotease (Based on Normal Steeping Barley, %) ([2]; Initial pH 1.8, 82 mM): 45%
- Endoprotease (Based on Normal Steeping Barley, %) ([2]; Initial pH 2.0, 29 mM): 65%
- Endoprotease (Based on Normal Steeping Barley, %) ([2]; Initial pH 2.2, 18 mM): 68%
- Endoprotease (Based on Normal Steeping Barley, %) ([2]; Initial pH 2.4, 7 mM): 35%
- Length of Acrospires ([3]; Initial pH 1.5, 223 mM): 0.38
- Amount of Rooting Based on 100 g of Barley ([3]; Initial pH 1.5, 223 mM): 0.03 g
- Length of Acrospires ([3]; Initial pH 1.6, 176 mM): 0.38
- Amount of Rooting Based on 100 g of Barley ([3]; Initial pH 1.6, 176 mM): 0.03 g
- Length of Acrospires ([3]; Initial pH 1.8, 82 mM): 0.38
- Amount of Rooting Based on 100 g of Barley ([3]; Initial pH 1.8, 82 mM): 0.05 g
- Length of Acrospires ([3]; Initial pH 2.0, 29 mM): 0.62
- Amount of Rooting Based on 100 g of Barley ([3]; Initial pH 2.0, 29 mM): 0.30 g
- Length of Acrospires ([3]; Initial pH 2.2, 18 mM): 0.63
- Amount of Rooting Based on 100 g of Barley ([3]; Initial pH 2.2, 18 mM): 1.51 g
- Length of Acrospires ([3]; Initial pH 2.4, 7 mM): 0.63
- Amount of Rooting Based on 100 g of Barley ([3]; Initial pH 2.4, 7 mM): 2.90 g
- Acrid Component (Based on Normal Steeping Barley, % by weight) ([4]; Initial pH 1.5, 223 mM): 259 % by weight
- Acrid Component (Based on Normal Steeping Barley, % by weight) ([4]; Initial pH 1.6, 176 mM): 104 % by weight
- Acrid Component (Based on Normal Steeping Barley, % by weight) ([4]; Initial pH 1.8, 82 mM): 53 % by weight
- Acrid Component (Based on Normal Steeping Barley, % by weight) ([4]; Initial pH 2.0, 29 mM): 80 % by weight
- Acrid Component (Based on Normal Steeping Barley, % by weight) ([4]; Initial pH 2.2, 18 mM): 116 % by weight
- Acrid Component (Based on Normal Steeping Barley, % by weight) ([4]; Initial pH 2.4, 7 mM): 120 % by weight
- α-Amylase (Based on Normal Steeping Barley, %) ([5]; Initial pH 1.5, 223 mM): 21%
- α-Amylase (Based on Normal Steeping Barley, %) ([5]; Initial pH 1.6, 176 mM): 25%
- α-Amylase (Based on Normal Steeping Barley, %) ([5]; Initial pH 1.8, 82 mM): 39%
- α-Amylase (Based on Normal Steeping Barley, %) ([5]; Initial pH 2.0, 29 mM): 90%
- α-Amylase (Based on Normal Steeping Barley, %) ([5]; Initial pH 2.2, 18 mM): 90%
- α-Amylase (Based on Normal Steeping Barley, %) ([5]; Initial pH 2.4, 7 mM): 91%
